Experimental data: the supplement of paper PMC10307832

Legend:
Assay in all cases: relative viability (nuclei count vs DMSO), 5 days (fraction); higher = more cells survive
[1] = compound: Cn1cc(-c2cnn3c(N)c(Br)c([C@@H]4CCCNC4)nc23)cn1 + COc1cc2c(Oc3ccc(NC(=O)C4(C(=O)Nc5ccc(F)cc5)CC4)cc3F)ccnc2cc1OCCCN1CCOCC1 [Foretinib] (partner 0.25 µM)
Method in brief: (§1)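 Values are medians from duplicate plates. Each reflects relative viability, defined as the nuclei count of treated wells over that of vehicle wells. Lung cancer cell lines in 1536-well plates were pin-tool dosed one day after seeding with one drug alone or with a fixed anchor-drug dose plus five library-drug doses (not always all listed) in √10 steps, then fixed, stained and imaged at 4× after 5 days.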

[2] = compound: Cn1cc(-c2cnn3c(N)c(Br)c([C@@H]4CCCNC4)nc23)cn1 + Cc1nc(Nc2ncc(C(=O)Nc3c(C)cccc3Cl)s2)cc(N2CCN(CCO)CC2)n1 [Dasatinib] (partner 0.075 µM)
Method in brief: as §1

[3] = compound: Cn1cc(-c2cnn3c(N)c(Br)c([C@@H]4CCCNC4)nc23)cn1 + Nc1ncn([C@H]2C[C@H](O)[C@@H](CO)O2)c(=O)n1 [Decitabine] (partner 2 µM)
Method in brief: as §1

[4] = compound: Cn1cc(-c2cnn3c(N)c(Br)c([C@@H]4CCCNC4)nc23)cn1 + CCNC(=O)c1noc(-c2cc(C(C)C)c(O)cc2O)c1-c1ccc(CN2CCOCC2)cc1 [Luminespib] (partner 0.01 µM)
Method in brief: as §1

| Cell Line | relative viability ([1]; first compound 0.05 µM) | relative viability ([1]; first compound 0.1581 µM) | relative viability ([1]; first compound 0.5 µM) | relative viability ([1]; first compound 1.581 µM) | relative viability ([1]; first compound 5 µM) | relative viability ([2]; first compound 0.05 µM) | relative viability ([2]; first compound 0.1581 µM) | relative viability ([2]; first compound 0.5 µM) | relative viability ([2]; first compound 1.581 µM) | relative viability ([2]; first compound 5 µM) | relative viability ([3]; first compound 0.05 µM) | relative viability ([3]; first compound 0.1581 µM) | relative viability ([3]; first compound 0.5 µM) | relative viability ([3]; first compound 1.581 µM) | relative viability ([3]; first compound 5 µM) | relative viability ([4]; first compound 0.05 µM) | relative viability ([4]; first compound 0.1581 µM) | relative viability ([4]; first compound 0.5 µM) | relative viability ([4]; first compound 1.581 µM) | relative viability ([4]; first compound 5 µM) |
| --- | --- | --- | --- | --- | --- | --- | --- | --- | --- | --- | --- | --- | --- | --- | --- | --- | --- | --- | --- | --- |
| NCI-H2170 | 1.02 | 0.934 | 0.963 | 1.02 | 1.1 | 0.713 | 0.541 | 0.524 | 0.551 | 0.446 | 0.503 | 0.491 | 0.459 | 0.473 | 0.516 | 0.837 | 0.561 | 0.799 | 0.931 | 0.422 |
| NCI-H2342 | 1.13 | 1.19 | 1.09 | 0.92 | 1.07 | 0.31 | 0.3 | 0.345 | 0.336 | 0.28 | 0.728 | 0.731 | 0.696 | 0.639 | 0.742 | 0.764 | 0.88 | 0.773 | 0.708 | 0.615 |
| NCI-H2347 | 0.789 | 0.877 | 0.815 | 0.593 | 0.724 | 0.319 | 0.255 | 0.285 | 0.324 | 0.209 | 0.611 | 0.649 | 0.637 | 0.662 | 0.621 | 0.506 | 0.677 | 0.473 | 0.409 | 0.297 |
| NCI-H2405 | 0.978 | 0.952 | 1.05 | 0.989 | 0.919 | 0.21 | 0.458 | 0.205 | 0.201 | 0.203 | 0.747 | 0.819 | 0.776 | 0.71 | 0.713 | 0.717 | 0.858 | 0.705 | 0.73 | 0.439 |
| NCI-H3122 | 0.977 | 1.02 | 0.92 | 0.992 | 0.977 | 0.905 | 0.833 | 0.614 | 0.84 | 0.64 | 0.427 | 0.454 | 0.329 | 0.413 | 0.511 | 0.0947 | 0.0737 | 0.0857 | 0.0666 | 0.12 |
| PC-3 [JPC-3] | 1.02 | 1.2 | 0.997 | 1.03 | 1.06 | 1.02 | 1.09 | 0.826 | 0.775 | 1.01 | 0.759 | 0.86 | – | 0.808 | 0.853 | 0.702 | 0.642 | 0.619 | 0.564 | 0.748 |
| PC-14 | 0.974 | 1.04 | 0.933 | 0.903 | 0.53 | 0.272 | 0.203 | 0.196 | 0.113 | 0.063 | 0.237 | 0.2 | 0.206 | 0.186 | 0.123 | 0.179 | – | 0.179 | 0.159 | 0.165 |
| RERF-LC-KJ | 0.98 | 0.881 | 0.865 | 0.727 | 0.86 | 0.936 | 0.806 | 0.813 | 0.572 | 0.618 | 0.822 | 0.85 | 0.636 | 0.549 | 0.628 | 1.34 | 1.28 | 0.693 | 0.863 | 0.873 |
| SK-LU-1 | 0.819 | 0.709 | 0.485 | 0.28 | 0.211 | 0.173 | 0.132 | 0.148 | 0.164 | 0.118 | 0.788 | 0.586 | 0.537 | 0.363 | 0.255 | 0.184 | 0.207 | 0.233 | 0.186 | 0.165 |
| SK-MES-1 | 0.909 | 1.04 | 0.946 | 0.867 | 0.566 | 0.359 | 0.308 | 0.236 | 0.231 | 0.118 | 0.356 | 0.413 | 0.336 | 0.355 | 0.204 | 0.651 | 0.406 | 0.419 | 0.24 | 0.187 |
| SW 1573 | 0.97 | 1.09 | 0.865 | 0.848 | 1.01 | 0.604 | 0.631 | 0.455 | 0.247 | 0.453 | 0.567 | 0.498 | 0.455 | 0.462 | 0.517 | 0.211 | 0.288 | 0.21 | 0.185 | 0.146 |
| UMC-11 | 1 | 0.984 | 0.851 | 0.773 | 0.51 | 0.536 | 0.424 | 0.32 | 0.312 | 0.341 | 0.692 | 0.536 | 0.689 | 0.492 | 0.373 | 1.11 | 0.884 | 0.972 | 0.556 | 0.392 |
